Reference: ChEMBL document CHEMBL5150055, “B-cell Lymphoma 6 Inhibitors: Current Advances and Prospects of Drug Development for Diffuse Large B-cell Lymphomas” (J Med Chem, 2022)
≈ marks a conversion by molar mass, not a printed value. Values belong to the molecule of their own block, whether it stands above or below them.

Tests used:
[1] = biological target: T1, B-cell lymphoma 6 protein (Homo sapiens, UniProt P41182); assay: Binding affinity to BCL6 (unknown origin) assessed as ratio of Kinact/Ki incubated for 4 hrs by IPC assay
[2] = system: SU-DHL-6; assay: Antitumor activity against BCL6 dependent human SU-DHL-6 cells assessed as cell growth inhibition; assay type: functional, cell-based
[3] = system: DOHH-2; assay: Antitumor activity against BCL6 dependent human DOHH-2 cells assessed as cell growth inhibition; assay type: functional, cell-based
[4] = system: L02; assay: Antitumor activity against human L02 cells assessed as cell growth inhibition; assay type: functional, cell-based
[5] = system: OCI-Ly7; assay: Antitumor activity against BCL6 dependent human OCILY7 cells assessed as cell growth inhibition; assay type: functional, cell-based
[6] = biological target: T1, B-cell lymphoma 6 protein; assay: Inhibition of BCL6 (unknown origin) by HTRF assay
[7] = system: Farage; assay: Antitumor activity against BCL6 dependent human Farage cells assessed as cell growth inhibition; assay type: functional, cell-based
[8] = biological target: T1, B-cell lymphoma 6 protein; assay: Binding affinity to BCL6 BTB domain (unknown origin) by SPR analysis
[9] = system: SUD4; assay: Antitumor activity against BCL6 dependent human SU-DHL-4 cells assessed as cell growth inhibition; assay type: functional, cell-based
[10] = Aqueous solubility of compound; assay type: physicochemical; conditions: buffer
[11] = biological target: T1, B-cell lymphoma 6 protein; assay: Inhibition of D2-SMRT peptide binding to human BCL6 BTB-POZ domain incubated for 60 mins by TR-FRET assay
[12] = biological target: T1, B-cell lymphoma 6 protein; assay: Displacement AF647-BCOR peptide from human BCL6 BTB-POZ domain incubated for 60 mins by TR-FRET assay
[13] = biological target: T1, B-cell lymphoma 6 protein; assay: Displacement AF647-NCOR peptide from human BCL6 BTB-POZ domain incubated for 60 mins by TR-FRET assay
[14] = biological target: T1, B-cell lymphoma 6 protein; assay: Binding affinity to BCL6 BTB domain (5 to 129 residues) (unknown origin) expressed in Escherichia coli using 5-TAMRA-RSEIISTAPSSWVVPGP as substrate incubated for 1 hrs by FP assay
[15] = biological target: T1, B-cell lymphoma 6 protein; assay: Binding affinity to BCL6 BTB domain (5 to 129 residues) (unknown origin) expressed in Escherichia coli by SPR analysis
[16] = biological target: T1, B-cell lymphoma 6 protein; assay: Binding affinity to wild type full length BCL6 BTB domain having SMRT BBD motif sequence (unknown origin) transfected in human HEK293 cells by electrophoretic mobility shift assay; assay type: cell-based
[17] = system: OCI-Ly10; assay: Antiproliferative activity against human OCI-Ly10 cells assessed as growth inhbition by measuring metabolic viability incubated for 48 hrs by fluorometric resazurin reduction method; assay type: functional, cell-based; conditions: OCI-Ly10, 48 h
[18] = system: OCI-Ly1; assay: Antiproliferative activity against human OCI-Ly1 cells assessed as growth inhbition by measuring metabolic viability incubated for 48 hrs by fluorometric resazurin reduction method; assay type: functional, cell-based; conditions: OCI-Ly1, 48 h
[19] = Binding affinity to wild type full length BCL6 BTB domain SMRT BBD motif sequence mutant (unknown origin) transfected in human HEK293 cells by electrophoretic mobility shift assay; assay type: cell-based
[20] = system: OCI-Ly7; assay: Antiproliferative activity against human OCILY7 cells assessed as growth inhbition by measuring metabolic viability incubated for 48 hrs by fluorometric resazurin reduction method; assay type: functional, cell-based; conditions: OCI-Ly7, 48 h

Molecule: CCC(=O)NCCN1C(=O)C(CCCCNC(=O)CCl)Oc2cc(Nc3cc(OC4CCOCC4)c([N+](=O)[O-])cc3Cl)ccc21 (stereo unspecified)
- Ratio [1]: 1.9 10^4/M/s

Molecule: C[C@@H](NC(=O)COC(=O)CCN1C(=O)/C(=C2/C(=O)Nc3ccc(Cl)cc32)SC1=S)C(=O)N[C@@H](CCC(=O)O)C(=O)O
- solubility [10]: 0.218 µg/mL (≈ 0.348 µM)

Molecule: Cc1cc(C)n(-c2ncc(Cl)c(Nc3ccc(Cl)cc3)n2)n1
- Kd [14]: 18000 nM
- Kd [15]: 20000 nM

Molecule: H-HHHHHHPTATHAGLVATVKEAGRSIHEI-OH
- Kd [16]: 10200 nM
- IC50 [17]: 11300 nM
- IC50 [18]: 11300 nM
- Kd [19]: 148000 nM
- IC50 [20]: 11300 nM

Now from value to molecule, other results behind:

- Ratio [1]: 3 10^1/M/s
Molecule: O=C(CCl)NCCCCn1c(=O)[nH]c2ccc(Nc3ccc([N+](=O)[O-])cc3Cl)cc21

- IC50 [2]: 1100 nM
- IC50 [5]: 1100 nM
- Kd [6]: 1370 nM
- Kd [8]: 1610 nM
Molecule: C[C@@H]1CN(c2ncc(F)c(Nc3ccc(NC(=O)c4cccc(Br)n4)cc3)n2)C[C@H](C)N1
- IC50 [3]: 1100 nM
- IC50 [4]: 21600 nM
- IC50 [7]: 1100 nM
- IC50 [9]: 1390 nM

- IC50 [11]: 10 nM
- IC50 [12]: 25.1 nM
- IC50 [13]: 25.1 nM
Molecule: Cc1ncccc1[C@H]1C[C@@H](c2cccc3nc(N)ccc23)Nc2c(F)cnn21
